Drawing on the RepoRT retention time repository (doi:10.1016/j.foodchem.2021.129757), this text covers LC retention time for 5 compounds.

SMILES strings stand for the structures.

The nature of the first data set: RP, Waters ACQUITY UPLC HSS T3, 100 × 2.1 mm, 1.8 µm, 30 °C, 0.4 mL/min, estimated dead time 0.55 min; A: water + 0.1% formic acid, pH 3; B: acetonitrile + 0.1% formic acid, pH 3; gradient (min/%B) 0/0 2/0 15/100 22/100 22.1/0 26/0. To be noted: stereoisomer not certain.
Consider `O=C(CCc1ccc(O)cc1)c1c(O)cc(O)cc1O` [Phloretin], for which the LC retention time was 11.4 min.

A short description of a further data set: RP, Phenomenex Synergi Hydro-RP, 150 × 2 mm, 4 µm, 30 °C, 0.5 mL/min, estimated dead time 0.6 min; A: water + 0.1% formic acid, pH 3; B: acetonitrile + 0.1% formic acid, pH 3; gradient (min/%B) 0/5 1/5 35/45 40/100 45/100. To be noted: stereoisomer not certain.
As to `CC1OC(OC2C(O)C(OCCc3ccc(O)c(O)c3)OC(CO)C2OC(=O)C=Cc2ccc(O)c(O)c2)C(O)C(O)C1O` (stereo not drawn) [Verbascoside], the LC retention time is 15.8 min.
On the same count and under the same terms, under `O=c1c(O)c(-c2ccc(OS(=O)(=O)O)c(O)c2)oc2cc(O)cc(O)c12` [Quercetin 4-O-sulfate] stands 20.7 min; under `COc1cc(-c2oc3cc(O)cc(O)c3c(=O)c2O)ccc1O` [Isorhamnetin], 27.4 min.
On the same count and under the same terms, then `CC1OC(OC2C(Oc3cc(O)c4c(c3)OC(c3ccc(O)cc3)CC4=O)OC(CO)C(O)C2O)C(O)C(O)C1O` (stereo not drawn) [Naringin], with 17.3 min.
Regarding `O=C(CCc1ccc(O)cc1)c1c(O)cc(O)cc1O` [Phloretin], the LC retention time is 25.8 min.

The next data set can be described thus: RP, Phenomenex Luna C18, 150 × 4.6 mm, 3 µm, 25 °C, 0.5 mL/min, estimated dead time 3.2 min; A: water + 0.1% formic acid, pH 3; B: acetonitrile + 0.1% formic acid, pH 3; gradient (min/%B) 0/0 30/30 35/40 50/80 52/80 60/0 65/0. To be noted: stereoisomer not certain.
Take `CC1OC(OC2C(O)C(OCCc3ccc(O)c(O)c3)OC(CO)C2OC(=O)C=Cc2ccc(O)c(O)c2)C(O)C(O)C1O` (stereo not drawn) [Verbascoside]: the LC retention time is 23 min.
For the compound `O=c1c(O)c(-c2ccc(OS(=O)(=O)O)c(O)c2)oc2cc(O)cc(O)c12` [Quercetin 4-O-sulfate], the LC retention time was 47.6 min.
As to `COc1cc(-c2oc3cc(O)cc(O)c3c(=O)c2O)ccc1O` [Isorhamnetin], the LC retention time is 42.5 min.
On the same count and under the same terms, under `CC1OC(OC2C(Oc3cc(O)c4c(c3)OC(c3ccc(O)cc3)CC4=O)OC(CO)C(O)C2O)C(O)C(O)C1O` (stereo not drawn) [Naringin] stands 26.7 min.
For `O=C(CCc1ccc(O)cc1)c1c(O)cc(O)cc1O` [Phloretin], the LC retention time is 41.2 min.

The nature of another data set: RP, Waters ACQUITY UPLC BEH C18, 100 × 2.1 mm, 1.7 µm, 65 °C, 0.4 mL/min, estimated dead time 0.55 min; A: water + 0.1% formic acid, pH 3; B: 80% acetonitrile + 20% acetone + 0.1% formic acid, pH 3; gradient (min/%B) 0/0 5/100 5.5/0 6/0. To be noted: stereoisomer not certain.
Take `O=C(CCc1ccc(O)cc1)c1c(O)cc(O)cc1O` [Phloretin]: the LC retention time is 2.85 min.

The nature of another data set: RP, Merck LiChrospher RP-18, 250 × 4 mm, 5 µm, 35 °C, 0.3 mL/min, estimated dead time 6.7 min; A: water + 0.5% formic acid; B: acetonitrile + 0.5% formic acid; gradient (min/%B) 0/5 10/5 30/15 45/20 65/20 95/54 110/63 115/5 135/5. To be noted: stereoisomer not certain.
For the compound `COc1cc(-c2oc3cc(O)cc(O)c3c(=O)c2O)ccc1O` [Isorhamnetin], the LC retention time was 98.9 min.
Same read-out and setting: under `O=C(CCc1ccc(O)cc1)c1c(O)cc(O)cc1O` [Phloretin] stands 94.8 min.

A further data set is described as follows: RP, Agilent ZORBAX RRHD Eclipse Plus C18, 50 × 2.1 mm, 1.8 µm, 30 °C, 0.4 mL/min, estimated dead time 0.28 min; A: water + 0.1% formic acid, pH 3; B: acetonitrile + 0.1% formic acid, pH 3; gradient (min/%B) 0/1 5/10 8/25 9.1/99 10/99 12/1. To be noted: stereoisomer not certain.
For `COc1cc(-c2oc3cc(O)cc(O)c3c(=O)c2O)ccc1O` [Isorhamnetin], the LC retention time is 9.19 min.
In the case of `O=C(CCc1ccc(O)cc1)c1c(O)cc(O)cc1O` [Phloretin], the LC retention time was 9.14 min.

A short description of the next data set: RP, Agilent InfinityLab Poroshell 120 EC-C18, 100 × 3 mm, 2.7 µm, 25 °C, 0.4 mL/min, estimated dead time 1.1 min; A: water + 0.1% formic acid, pH 3; B: acetonitrile + 0.1% formic acid, pH 3; gradient (min/%B) 0/5 10/25 20/40 24/90 25/90 26/5 30/5. To be noted: stereoisomer not certain.
`CC1OC(OC2C(O)C(OCCc3ccc(O)c(O)c3)OC(CO)C2OC(=O)C=Cc2ccc(O)c(O)c2)C(O)C(O)C1O` (stereo not drawn) [Verbascoside]: the LC retention time was 10.2 min.
Same read-out and setting: then `O=c1c(O)c(-c2ccc(OS(=O)(=O)O)c(O)c2)oc2cc(O)cc(O)c12` [Quercetin 4-O-sulfate], with 12.9 min; and `COc1cc(-c2oc3cc(O)cc(O)c3c(=O)c2O)ccc1O` [Isorhamnetin], with 17.6 min.
Still for that read-out and setting: under `CC1OC(OC2C(Oc3cc(O)c4c(c3)OC(c3ccc(O)cc3)CC4=O)OC(CO)C(O)C2O)C(O)C(O)C1O` (stereo not drawn) [Naringin] stands 10.6 min.
Same read-out and setting: under `O=C(CCc1ccc(O)cc1)c1c(O)cc(O)cc1O` [Phloretin] stands 16.7 min.

Another data set can be described thus: RP, Phenomenex Kinetex EVO C18, 100 × 2.1 mm, 2.6 µm, 40 °C, 0.4 mL/min, estimated dead time 0.55 min; A: water + 0.2% formic acid; B: acetonitrile + 0.2% formic acid; gradient (min/%B) 0/5 0.5/5 7/95 8/95 8.5/5 12/5. To be noted: stereoisomer not certain.
For `CC1OC(OC2C(O)C(OCCc3ccc(O)c(O)c3)OC(CO)C2OC(=O)C=Cc2ccc(O)c(O)c2)C(O)C(O)C1O` (stereo not drawn) [Verbascoside], the LC retention time is 4.84 min.

The nature of another data set: RP, Waters ACQUITY UPLC BEH Shield RP18, 150 × 2.1 mm, 1.7 µm, 40 °C, 0.4 mL/min, estimated dead time 0.83 min; A: water + 0.1% formic acid, pH 3; B: acetonitrile + 0.1% formic acid, pH 3; gradient (min/%B) 0/0 30/50 31/100 37/100 37.1/0. To be noted: stereoisomer not certain.
For `CC1OC(OC2C(O)C(OCCc3ccc(O)c(O)c3)OC(CO)C2OC(=O)C=Cc2ccc(O)c(O)c2)C(O)C(O)C1O` (stereo not drawn) [Verbascoside], the LC retention time is 12 min.
The same measure, in the same setting: then `COc1cc(-c2oc3cc(O)cc(O)c3c(=O)c2O)ccc1O` [Isorhamnetin], with 24 min; and `CC1OC(OC2C(Oc3cc(O)c4c(c3)OC(c3ccc(O)cc3)CC4=O)OC(CO)C(O)C2O)C(O)C(O)C1O` (stereo not drawn) [Naringin], with 13 min.
Still for that read-out and setting: then `O=C(CCc1ccc(O)cc1)c1c(O)cc(O)cc1O` [Phloretin], with 21.3 min.

The nature of a further data set: RP, 50 × 0.5 mm, 2.7 µm, 35 °C, 0.01 mL/min, estimated dead time 0.62 min; A: water + 0.1% formic acid, pH 3; B: acetonitrile + 0.1% formic acid, pH 3; gradient (min/%B) 0/5 12/95 14/95 16/5. To be noted: stereoisomer not certain.
On to `CC1OC(OC2C(O)C(OCCc3ccc(O)c(O)c3)OC(CO)C2OC(=O)C=Cc2ccc(O)c(O)c2)C(O)C(O)C1O` (stereo not drawn) [Verbascoside], for which the LC retention time is 4.6 min.
Same read-out and setting: under `COc1cc(-c2oc3cc(O)cc(O)c3c(=O)c2O)ccc1O` [Isorhamnetin] stands 4.51 min; under `CC1OC(OC2C(Oc3cc(O)c4c(c3)OC(c3ccc(O)cc3)CC4=O)OC(CO)C(O)C2O)C(O)C(O)C1O` (stereo not drawn) [Naringin], 4.65 min; under `O=C(CCc1ccc(O)cc1)c1c(O)cc(O)cc1O` [Phloretin], 6 min.

Another data set is described as follows: RP, Phenomenex Luna Omega Polar C18, 100 × 2.1 mm, 1.6 µm, 40 °C, 0.5 mL/min, estimated dead time 0.44 min; A: water + 0.5% formic acid; B: acetonitrile + 0.5% formic acid; gradient (min/%B) 0/5 3/50 3.1/100 5/100 5.1/5 7/5. To be noted: stereoisomer not certain.
Take `CC1OC(OC2C(O)C(OCCc3ccc(O)c(O)c3)OC(CO)C2OC(=O)C=Cc2ccc(O)c(O)c2)C(O)C(O)C1O` (stereo not drawn) [Verbascoside]: the LC retention time is 2.49 min.
As for `O=c1c(O)c(-c2ccc(OS(=O)(=O)O)c(O)c2)oc2cc(O)cc(O)c12` [Quercetin 4-O-sulfate], the LC retention time was 2.93 min.
On the same count and under the same terms, then `COc1cc(-c2oc3cc(O)cc(O)c3c(=O)c2O)ccc1O` [Isorhamnetin], with 3.7 min.
